One experiment concerns IRF pathway. The experiment in a line: Reporter gene expression assay for IRF axis in THP1-Dual cells (secreted Lucia luciferase). In kind it is cell-based, human. The following applies: Homo sapiens, THP1-Dual, 20 h, 20 hr stimulation, QUANTI-Luc, EC50 range, read-out: THP-IRF activity. How it is done: (§1) THP1-Dual™ cells (Invivogen) were derived from the human THP-1 monocyte cell line by stable integration of two inducible reporter constructs. As a result, THP1-Dual™ cells allow the simultaneous study of the NF-κB pathway, by monitoring the activity of secreted SEAP, and the IRF pathway, by assessing the activity of a secreted luciferase (Lucia). […] THP1-Dual™ cells were seeded in 384-well plates in growth medium and stimulated with novel compounds. After 20 hr of stimulation supernatant were removed and reporter proteins were readily measured in the cell culture supernatant using QUANTI-Blue™ (Invivogen), a SEAP detection reagent, and QUANTI-Luc™ (Invivogen), a luciferase detection reagent on a Spectramax i3X luminometer. EC50 value ranges for exemplary compounds tested in the above assay are given.
(In general: In a reporter assay the amount or activity of a reporter protein is the signal.)

The target in another experiment is T1, WT/R232 STING protein (Homo sapiens, UniProt Q86WV6, H232R).
T1 construct: host or cells: HEK293T
In words: Luciferase reporter assay in HEK293T-hSTING-Luciferase cells (R232). In kind it is cell-based. As to conditions: 20 hr stimulation, EC50 range. The method, boiled down:
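Clonal HEK293T cells stably expressing human STING R232 plus an ISRE/ISG54-driven secreted luciferase reporter, stimulated with compounds for 20 hr. Luciferase in supernatant read by luminescence; activity given as fold-induction over baseline.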

The target in the next experiment is T2, hSTING (H232) (Homo sapiens, UniProt Q86WV6).
T2 construct: host or cells: HEK293T
In words: Luciferase reporter assay in HEK293T-hSTING-Luciferase cells (H232/REF polymorph). The class given is cell-based. The following applies: EC50 range. From the text: (§2) • a) Stable STING expressing cells—Stable HEK293T STING-expressing cell lines were generated using plasmids purchased from Invivogen, CA, USA, that contain STING cDNA cloned into the pUNO-1 vector under hEF1-HTLV promoter and containing the Blasticidin selection cassette. The plasmids hSTING (R232), hSTING (H232), hSTING (HAQ) were directly procured from Invivogen while hSTING (AQ) and hSTING (Q) were derived from hSTING (HAQ) and hSTING (R232) plasmids respectively by using a PCR based site directed mutagenesis method. These vectors were individually transfected into HEK293T cells using Lipofectamine (Invitrogen) and transfected cells were selected under Blasticidin selection. These transfected cells were further subjected to clonal selection using the limiting dilution method to obtain clonally pure populations of HEK cells transfected with each of the above mentioned human STING variants. Only those clones were selected in which ligand independent activation of STING was minimal. • b) Stable Luciferase reporter gene expressing cells—Stable HEK293T Luciferase reporter gene expressing cell lines were generated using pCDNA4 plasmids under an IRF-inducible promoter. This promoter is comprised of five tandem interferon-stimulated response elements (ISRE) fused to an ISG54 minimal promoter. This vector was transfected into HEK293T cells using Lipofectamine (Invitrogen) and transfected cells were selected under Zeocin selection. These transfected cells were further subjected to clonal selection using the limiting dilution method to obtain clonally pure populations of HEK cells transfected the Luciferase reporter construct. Only those clones were selected in which ligand independent induction of luciferase was minimal.
(§3) 5×10^5 clonally selected HEK293T-hSTING-Luciferase cells were seeded in 384-well plates in growth medium and stimulated with novel compounds. After 20 hr of stimulation supernatant were removed and secretary reporter gene activity were measured using the Quanti-Luc detection system (Invivogen) on a Spectramax i3X luminometer.
(§4) The 5 major polymorphisms of human STING are shown in FIG. 1, with their prevalence in human populations indicated.

In the next experiment the test system is NF-κB pathway. In words: Reporter gene expression assay for NFκB axis in THP1-Dual cells (secreted SEAP). The class given is cell-based, human. As to conditions: Homo sapiens, THP1-Dual, 20 h, 20 hr stimulation, QUANTI-Blue SEAP, EC50 range, read-out: THP-NFKB activity. On the procedure: as §1
A further experiment has as its target T3, hSTING (HAQ) (Homo sapiens, UniProt Q86WV6, G230A/H232R/R293Q/R71H).
T3 construct: host or cells: HEK293T
The experiment in a line: Luciferase reporter assay in HEK293T-hSTING-Luciferase cells (HAQ polymorph). As to conditions: EC50 range. In kind it is cell-based.
Excerpt: as §2, §3, §4

Data on nine compounds can be found in patent publication US20200172483A1, “HETEROCYCLIC SMALL MOLECULE MODULATORS OF HUMAN STING” (Curadev Pharma Limited, priority 2017, published 2020).

T2 sequence (Q86WV6 whole entry): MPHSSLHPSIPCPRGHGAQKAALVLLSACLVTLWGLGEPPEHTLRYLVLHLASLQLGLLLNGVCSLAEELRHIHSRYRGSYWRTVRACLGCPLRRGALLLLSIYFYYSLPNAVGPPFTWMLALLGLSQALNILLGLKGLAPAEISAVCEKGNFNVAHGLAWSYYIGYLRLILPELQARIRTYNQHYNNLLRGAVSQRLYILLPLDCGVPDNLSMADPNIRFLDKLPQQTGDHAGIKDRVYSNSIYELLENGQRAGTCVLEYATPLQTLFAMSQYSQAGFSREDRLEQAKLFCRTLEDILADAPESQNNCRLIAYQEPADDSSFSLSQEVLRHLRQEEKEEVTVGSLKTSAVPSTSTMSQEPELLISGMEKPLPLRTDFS
T3 sequence (Q86WV6 whole entry R71H/G230A/H232R/R293Q): as the sequence (Q86WV6 whole entry) above, with R71H, G230A, H232R, R293Q counted along it
T1 sequence (Q86WV6 whole entry H232R): as the sequence (Q86WV6 whole entry) above, with H232R counted along it

Regarding `CC1(C)C(=O)N(Cc2c(F)cccc2Cl)c2cc(C(=O)NCc3ccc(F)cc3F)ccc21` [Example 26, 1-(2-chloro-6-fluorobenzyl)-N-(2,4-difluorobenzyl)-3,3-dimethyl-2-oxoindoline-6-carboxamide], the EC50 in the experiment with IRF pathway is 1 to 10 µM; on WT/R232 STING protein, not above 1 µM; at hSTING (H232), not above 1 µM; in the experiment on NF-κB pathway, 1 to 10 µM; on hSTING (HAQ) it was not above 1 µM.

Take `CC1(C)C(=O)N(Cc2c(F)cccc2Cl)c2cc(C(=O)NCc3c(F)cccc3F)ccc21` [Example 27, 1-(2-chloro-6-fluorobenzyl)-N-(2,6-difluorobenzyl)-3,3-dimethyl-2-oxoindoline-6-carboxamide]: the EC50 in the experiment with IRF pathway was 1 to 10 µM; on WT/R232 STING protein it was not above 1 µM; on hSTING (H232), 1 to 10 µM; in the experiment on NF-κB pathway it was 1 to 10 µM; at hSTING (HAQ), not above 1 µM.

`CC1(C)C(=O)N(Cc2c(F)cccc2Cl)c2cc(C(=O)NCc3nc4ccccc4o3)ccc21` [Example 30, N-(benzo[d]oxazol-2-ylmethyl)-1-(2-chloro-6-fluorobenzyl)-3,3-dimethyl-2-oxoindoline-6-carboxamide]: the EC50 was more than 10 µM with IRF pathway; 1 to 10 µM at WT/R232 STING protein; 1 to 10 µM on hSTING (H232); 1 to 10 µM with NF-κB pathway; 1 to 10 µM on hSTING (HAQ).

Turning to `CC1(C)C(=O)N(Cc2cccc(F)c2F)c2cc(C(=O)NCc3c(F)cc(F)cc3F)ccc21` [Example 33, 1-(2,3-difluorobenzyl)-3,3-dimethyl-2-oxo-N-(2,4,6-trifluorobenzyl)indoline-6-carboxamide], the EC50 in the experiment on IRF pathway is 1 to 10 µM; at WT/R232 STING protein it was not above 1 µM; on hSTING (H232) it was not above 1 µM; in the experiment with NF-κB pathway, 1 to 10 µM; on hSTING (HAQ), not above 1 µM.

For `CC1(C)C(=O)N(Cc2c(F)cccc2Cl)c2cc(C(=O)NCc3cc4ccccc4o3)ccc21` [Example 36, N-(benzofuran-2-ylmethyl)-1-(2-chloro-6-fluorobenzyl)-3,3-dimethyl-2-oxoindoline-6-carboxamide], the EC50 with IRF pathway is 1 to 10 µM; on WT/R232 STING protein, not above 1 µM; at hSTING (H232) it was 1 to 10 µM; in the experiment with NF-κB pathway, 1 to 10 µM; on hSTING (HAQ), 1 to 10 µM.

With `CC1(C)C(=O)N(Cc2cccc(C(N)=O)c2)c2cc(C(=O)NCc3c(F)cc(F)cc3F)ccc21` [Example 37, 1-(3-carbamoylbenzyl)-3,3-dimethyl-2-oxo-N-(2,4,6-trifluorobenzyl)indoline-6-carboxamide], the EC50 in the experiment with IRF pathway is more than 10 µM; on WT/R232 STING protein it was 1 to 10 µM; on hSTING (H232), 1 to 10 µM; in the experiment on NF-κB pathway, more than 10 µM; at hSTING (HAQ) it was more than 10 µM.

For the compound `CC1(C)C(=O)N(Cc2cc(F)cc(F)c2)c2cc(C(=O)NCc3ccc(N=[N+]=[N-])cc3)ccc21` [Example 48, N-(4-azidobenzyl)-1-(3,5-difluorobenzyl)-3,3-dimethyl-2-oxoindoline-6-carboxamide], the EC50 was more than 10 µM in the experiment on IRF pathway; 1 to 10 µM on WT/R232 STING protein; 1 to 10 µM on hSTING (H232); more than 10 µM in the experiment on NF-κB pathway; 1 to 10 µM on hSTING (HAQ).

As to `Cc1ccc(CNC(=O)c2ccc3c(c2)N(Cc2c(F)cccc2F)C(=O)C3(C)C)o1` [Example 50, 1-(2,6-difluorobenzyl)-3,3-dimethyl-N-((5-methylfuran-2-yl)methyl)-2-oxoindoline-6-carboxamide], the EC50 was more than 10 µM in the experiment on IRF pathway; 1 to 10 µM at WT/R232 STING protein; 1 to 10 µM at hSTING (H232); more than 10 µM with NF-κB pathway; 1 to 10 µM on hSTING (HAQ).

On to `Cc1cc(CN2C(=O)C(C)(C)c3ccc(C(=O)NCc4c(F)cc(F)cc4F)cc32)ccn1` [Example 54, 3,3-dimethyl-1-((2-methylpyridin-4-yl)methyl)-2-oxo-N-(2,4,6-trifluorobenzyl)indoline-6-carboxamide], for which the EC50 in the experiment with IRF pathway was more than 10 µM; at WT/R232 STING protein, 1 to 10 µM; on hSTING (H232) it was 1 to 10 µM; in the experiment with NF-κB pathway, more than 10 µM; at hSTING (HAQ), 1 to 10 µM.
